What was measured:
[1] = tested on: granulocyte macrophage colony-forming units (CFU-GM); assay: toxicity to granulocyte macrophage colony-forming units; format: cell-based; details: compared with AZT
[2] = tested on: erythroid burst-forming units (BFU-E); assay: toxicity to erythroid burst-forming units; format: cell-based; details: compared with AZT
[3] = tested on: antiviral activity of AZT; assay: effect of AMT on antiviral activity of AZT
[4] = pharmacokinetics and metabolism of AZT: hepatic catabolites; format: in vivo, human; details: in addition to GAZT
[5] = tested on: Human Immunodeficiency Virus (HIV); details: HIV infected patients; cited from earlier work
bone marrow cells = details: AZT treatment; cited from earlier work
[6] = recently discovered; Cretton et al 1991; cited from earlier work

SMILES: Cc1cn([C@H]2C[C@H](N)[C@@H](CO)O2)c(=O)[nH]c1=O [AMT, 3'-amino-3'-deoxythymidine]
- toxicity to CFU-GM relative to AZT [1]: many more times toxic
- toxicity to BFU-E relative to AZT [2]: many more times toxic
- effect on the antiviral activity of AZT ([3]; concentrations as low as a 1:1 molar ratio with AZT): adverse effect on the antiviral activity of AZT
- interference with the antiviral activity of AZT ([3]; stated as believed, no concentration given): believed to interfere with the antiviral activity of AZT

SMILES: Cc1cn([C@H]2C[C@H](N=[N+]=[N-])[C@@H](CO)O2)c(=O)[nH]c1=O [AZT, 3'-azido-3'-deoxythymidine]
- hepatic catabolites of AZT [4]: 3'-amino-3'-deoxythymidine (AMT) and its 5'-O-glucuronide(GAMT)
- clinical benefits [5]: increased survival, decreased number of opportunistic infections, and partial improvement in neurologic manifestations
- toxicity to bone marrow cells (bone marrow cells): toxicity to bone marrow cells, manifested by anemia and neutropenia
- hepatic catabolite of AZT [6]: 3'-amino-3'-deoxythymidine (AMT)

Source: US5464748A, “Method of detecting and monitoring levels of 3'-amino-3'-deoxythymidine in body fluids and antibodies for same” (The UAB Research Foundation, priority 1993, dated 1995)
